Results as given in patent publication US20130165641A1, “6,11-BRIDGED BIARYL MACROLIDES” (Enanta Pharmaceuticals, Inc., priority 2007, published 2013).
In brackets after ≈: the same amount, converted by molar mass.

How the values were obtained:
MRSA = assay: MIC by micro-dilution method, MRSA isolates; format: cell-based, Staphylococcus aureus; conditions: MRSA isolate 33591; examples of U.S. Pat. No. 6,878,691 for reference
Method in brief: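 CLSI M7-A7 broth microdilution with inoculum about 5×10^5 CFU/mL, in broth suited to each isolate. Plates incubated 24 h at 35±2 °C in ambient air. MIC is the lowest concentration without visible growth, judged by optical density.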

H. influenzae = assay: MIC by micro-dilution method, H. influenzae isolates; format: cell-based, Haemophilus influenzae; conditions: for MIC H. influenzae 33929: H. influenzae isolate 33929; for MIC H. influenzae 33929 / MIC H. influenzae 49247: examples of U.S. Pat. No. 6,878,691 for reference; for MIC H. influenzae 49247: H. influenzae isolate 49247
Method: Susceptibility tests can be used to quantitatively measure the in vitro activity of an antimicrobial agent against a given bacterial isolate. Compounds are tested for in vitro antibacterial activity by a micro-dilution method. Minimal Inhibitory Concentration (MIC) is determined in 96 well microtiter plates utilizing the appropriate broth medium for the observed bacterial isolates. […] The diluted compounds (2 μl/well) are then transferred into sterile, uninoculated medium (0.2 mL) by use of a 96 fixed tip-pipetting station. The inoculum for each bacterial strain is standardized to approximately 5×10^5 CFU/mL by optical comparison to a 0.5 McFarland turbidity standard. The plates are inoculated with 10 μl/well of adjusted bacterial inoculum. The 96 well plates are covered and incubated at 35+/−2° C. for 24 hours in ambient air environment. Following incubation, plate wells are visually examined by Optical Density measurement for the presence of growth (turbidity). The lowest concentration of an antimicrobial agent at which no visible growth occurs is defined as the MIC.
All in vitro testing follows the guidelines described in the Approved Standards M7-A7 protocol, published by the Clinical Laboratory Standards Institute (CLSI).

[1] = Animal model of infection of Compound 4: RLI, 2Log Red; format: in vivo, rats; conditions: RLI (rat lung infection model), ED50
[2] = Animal model of infection of Compound 4: MPT, ED50; format: in vivo, mice; conditions: Mus musculus, MPT (mouse protection test model)
[3] = Tissue accumulation of Compound 1 at the site of infection (infected skin tissue); conditions: mouse, po, 50 mg/kg

SMILES	MIC MRSA 33591 (MRSA)	MIC H. influenzae 33929 (H. influenzae)	MIC H. influenzae 49247 (H. influenzae)	MIC (H. influenzae; H. influenzae 33929)	MIC (H. influenzae; H. influenzae 49247)	other results
CC[C@H]1OC(=O)[C@@](C)(F)C(=O)[C@H](C)[C@@H](O[C@@H]2O[C@H](C)C[C@H](N(C)C)[C@H]2O)[C@@]2(C)C[C@@H](C)C(=NC(C)=O)[C@H](C)[C@@H](OC/C(=N\OCc3ccc(-c4cnccn4)s3)CO2)[C@]1(C)O [Compound 141, reference compound]	32 µg/mL (≈ 36.5 µM)	8 µg/mL (≈ 9.13 µM)	8 µg/mL (≈ 9.13 µM)	–	–	–
CC[C@H]1OC(=O)[C@@](C)(F)C(=O)[C@H](C)[C@@H](O[C@@H]2O[C@H](C)C[C@H](N(C)C)[C@H]2O)[C@@]2(C)C[C@@H](C)C(=NC(C)=O)[C@H](C)[C@@H](OC/C(=N\OCc3ccc(-c4csnn4)cc3)CO2)[C@]1(C)O [Compound 219, reference compound]	32 µg/mL (≈ 36.5 µM)	4 µg/mL (≈ 4.57 µM)	4 µg/mL (≈ 4.57 µM)	–	–	–
CC[C@H]1OC(=O)[C@H](C)C(=O)[C@H](C)[C@@H](O[C@@H]2O[C@H](C)C[C@H](N(C)C)[C@H]2O)[C@](C)(OC)C[C@@H](C)C(=O)[C@H](C)[C@H]2N(CCCCn3cnc(-c4cccnc4)c3)C(=O)O[C@]12C [Telithromycin, telithromycin]	–	–	–	–	–	2Log Red ([1]; H. influenzae 1435): 49 mg/kg; 2Log Red ([1]; H. influenzae 3643): 78 mg/kg; 2Log Red ([1]; H. influenzae S1280): 56 mg/kg; ED50 ([2]; S. aureus Smith): 11 mg/kg; ED50 ([2]; S. pneumoniae 7701): 10 mg/kg
CC[C@H]1OC(=O)[C@H](C)C(=O)[C@H](C)[C@@H](O[C@@H]2O[C@H](C)C[C@H](N(C)C)[C@H]2O)[C@@]2(C)C[C@@H](C)C(=NC(C)=O)[C@H](C)[C@@H](OC/C(=N\OCc3cnc(-n4cccn4)c(F)c3)CO2)[C@]1(C)O [Compound 259, reference compound]	>64 µg/mL	8 µg/mL (≈ 9.31 µM)	8 µg/mL (≈ 9.31 µM)	–	–	–
CC[C@H]1OC(=O)[C@H](C)C(=O)[C@H](C)[C@@H](O[C@@H]2O[C@H](C)C[C@H](N(C)C)[C@H]2O)[C@@]2(C)C[C@@H](C)C(=NC(C)=O)[C@H](C)[C@@H](OC/C(=N\OCc3ccc(-c4ncccn4)cc3)CO2)[C@]1(C)O [Compound 193, reference compound]	64 µg/mL (≈ 75.1 µM)	8 µg/mL (≈ 9.39 µM)	8 µg/mL (≈ 9.39 µM)	–	–	–
CC[C@H]1OC(=O)[C@@](C)(F)C(=O)[C@H](C)[C@@H](O[C@@H]2O[C@H](C)C[C@H](N(C)C)[C@H]2O)[C@@]2(C)C[C@@H](C)C(=NC(C)=O)[C@H](C)[C@@H](OC/C(=N\OCc3ccc(-n4cccn4)nc3)CO2)[C@]1(C)O [Compound 214, reference compound]	64 µg/mL (≈ 74.5 µM)	4 µg/mL (≈ 4.66 µM)	8 µg/mL (≈ 9.31 µM)	–	–	–
CC[C@H]1OC(=O)[C@H](C)C(=O)[C@H](C)[C@@H](O[C@@H]2O[C@H](C)C[C@H](N(C)C)[C@H]2O)[C@@]2(C)C[C@@H](C)C(=NC(C)=O)[C@H](C)[C@@H](OC/C(=N\OCc3ccc(-c4nnc(N)s4)nc3)CO2)[C@]1(C)O [Compound 234, reference compound]	>64 µg/mL	4 µg/mL (≈ 4.58 µM)	4 µg/mL (≈ 4.58 µM)	–	–	–
CCC1OC(=O)C(C)C(=O)C(C)C(OC2OC(C)CC(N(C)C)C2O)C2(C)CC(C)C(=O)C(C)C(OCC(=NOCc3csc(-c4cccc(N)n4)n3)CO2)C1(C)O (stereo not shown) [Example 71]	–	–	–	2 µg/mL (≈ 2.4 µM)	–	–
CCC(=O)/N=C1\[C@H](C)C[C@@]2(C)OC/C(=N/OCc3ccc(-c4nc(N)cs4)cn3)CO[C@H]([C@H]1C)[C@](C)(O)[C@@H](CC)OC(=O)[C@@](C)(F)C(=O)[C@H](C)[C@H]2O[C@@H]1O[C@H](C)C[C@H](N(C)C)[C@H]1O [Compound 1]	–	–	–	–	–	AUC(0-inf) ([3]; infected skin abscess): 617000 µg·h/mL; AUC(0-t) ([3]; infected skin abscess): 257000 µg·h/mL; Cmax ([3]; infected skin abscess): 9030 µg/mL; AUC(0-inf) ([3]; plasma): 24500 µg·h/mL; AUC(0-t) ([3]; plasma): 24400 µg·h/mL; Cmax ([3]; plasma): 5120 µg/mL; AUC(0-inf) ([3]; uninfected skin): 66600 µg·h/mL; AUC(0-t) ([3]; uninfected skin): 54600 µg·h/mL; Cmax ([3]; uninfected skin): 3800 µg/mL
CC[C@H]1OC(=O)[C@H](C)C(=O)[C@H](C)[C@@H](O[C@@H]2O[C@H](C)C[C@H](N(C)C)[C@H]2O)[C@@]2(C)C[C@@H](C)C(=NC(C)=O)[C@H](C)[C@@H](OC/C(=N\OCc3ccc(-c4nccs4)nc3)CO2)[C@]1(C)O [Compound 212, reference compound]	64 µg/mL (≈ 74.6 µM)	4 µg/mL (≈ 4.66 µM)	8 µg/mL (≈ 9.32 µM)	–	–	–
CCC1OC(=O)C(C)(F)C(=O)C(C)C(OC2OC(C)CC(N(C)C)C2O)C2(C)CC(C)C(=O)C(C)C(OCC(=NOCc3ccc(-c4nc(N)cs4)cn3)CO2)C1(C)O (stereo not shown) [Example 33]	–	–	–	4 µg/mL (≈ 4.71 µM)	2 µg/mL (≈ 2.35 µM)	–
CCC1OC(=O)C(C)C(=O)C(C)C(OC2OC(C)CC(N(C)C)C2O)C2(C)CC(C)C(=NC(C)=O)C(C)C(OCC(=NOCc3coc(-c4cccc(N)n4)n3)CO2)C1(C)O (stereo not shown) [Example 40]	–	–	–	2 µg/mL (≈ 2.33 µM)	2 µg/mL (≈ 2.33 µM)	–
CCC1OC(=O)C(C)C(=O)C(C)C(OC2OC(C)CC(N(C)C)C2O)C2(C)CC(C)C(=O)C(C)C(OCC(=NOCc3ccn(-c4cccc(N)n4)n3)CO2)C1(C)O (stereo not shown) [Example 58]	–	–	–	2 µg/mL (≈ 2.45 µM)	2 µg/mL (≈ 2.45 µM)	–
CCC1OC(=O)C(C)(F)C(=O)C(C)C(OC2OC(C)CC(N(C)C)C2O)C2(C)CC(C)C(=O)C(C)C(OCC(=NOCc3ccc(-n4ccc(N)n4)nc3)CO2)C1(C)O (stereo not shown) [Example 49]	–	–	–	2 µg/mL (≈ 2.4 µM)	2 µg/mL (≈ 2.4 µM)	–
CC[C@H]1OC(=O)[C@@](C)(F)C(=O)[C@H](C)[C@@H](O[C@@H]2O[C@H](C)C[C@H](N(C)C)[C@H]2O)[C@@]2(C)C[C@@H](C)C(=NC(C)=O)[C@H](C)[C@@H](OC/C(=N\OCc3ccc(-c4cccc(N)n4)s3)CO2)[C@]1(C)O [Compound 173, reference compound]	4 µg/mL (≈ 4.49 µM)	4 µg/mL (≈ 4.49 µM)	4 µg/mL (≈ 4.49 µM)	–	–	–
CCNC(=O)c1cccc(-c2cc(CO/N=C3\CO[C@@H]4[C@@H](C)C(=NC(C)=O)[C@H](C)C[C@@](C)(OC3)[C@H](O[C@@H]3O[C@H](C)C[C@H](N(C)C)[C@H]3O)[C@@H](C)C(=O)[C@@H](C)C(=O)O[C@H](CC)[C@@]4(C)O)on2)n1 [Compound 195, reference compound]	>64 µg/mL	32 µg/mL (≈ 35 µM)	32 µg/mL (≈ 35 µM)	–	–	–
CCC1OC(=O)C(C)C(=O)C(C)C(OC2OC(C)CC(N(C)C)C2O)C2(C)CC(C)C(=O)C(C)C(OCC(=NOCc3coc(-c4cccc(N)n4)n3)CO2)C1(C)O (stereo not shown) [Example 39]	–	–	–	1 µg/mL (≈ 1.23 µM)	1 µg/mL (≈ 1.23 µM)	–
CCC1OC(=O)C(C)C(=O)C(C)C(OC2OC(C)CC(N(C)C)C2O)C2(C)CC(C)C(=NC(C)=O)C(C)C(OCC(=NOCc3cnc(-c4cccc(N)n4)o3)CO2)C1(C)O (stereo not shown) [Example 70]	–	–	–	2 µg/mL (≈ 2.33 µM)	2 µg/mL (≈ 2.33 µM)	–
CC[C@H]1OC(=O)[C@H](C)C(=O)[C@H](C)[C@@H](O[C@@H]2O[C@H](C)C[C@H](N(C)C)[C@H]2O)[C@@]2(C)C[C@@H](C)C(=NC(C)=O)[C@H](C)[C@@H](OC/C(=N\OCc3ccc(-c4cccs4)nc3)CO2)[C@]1(C)O [Compound 205, reference compound]	>64 µg/mL	4 µg/mL (≈ 4.67 µM)	8 µg/mL (≈ 9.33 µM)	–	–	–
CCC1OC(=O)C(C)C(=O)C(C)C(OC2OC(C)CC(N(C)C)C2O)C2(C)CC(C)C(=O)C(C)C(OCC(=NOCc3ccc(-n4nnnc4N)cc3)CO2)C1(C)O (stereo not shown) [Example 46]	–	–	–	2 µg/mL (≈ 2.45 µM)	2 µg/mL (≈ 2.45 µM)	–
CCC1OC(=O)C(C)C(=O)C(C)C(OC2OC(C)CC(N(C)C)C2O)C2(C)CC(C)C(=O)C(C)C(OCC(=NOCc3ccc(-c4nc(N)cs4)cn3)CO2)C1(C)O (stereo not shown) [Example 32]	–	–	–	2 µg/mL (≈ 2.4 µM)	2 µg/mL (≈ 2.4 µM)	–
CCC1OC(=O)C(C)C(=O)C(C)C(OC2OC(C)CC(N(C)C)C2O)C2(C)CC(C)C(=O)C(C)C(OCC(=NOCc3ccc(-c4nc(N)no4)nc3)CO2)C1(C)O (stereo not shown) [Example 51]	–	–	–	2 µg/mL (≈ 2.45 µM)	2 µg/mL (≈ 2.45 µM)	–
CC[C@H]1OC(=O)[C@H](C)C(=O)[C@H](C)[C@@H](O[C@@H]2O[C@H](C)C[C@H](N(C)C)[C@H]2O)[C@@]2(C)C[C@@H](C)C(=NC(C)=O)[C@H](C)[C@@H](OC/C(=N\OCc3ccc(-c4cccc(N)n4)nc3)CO2)[C@]1(C)O [Compound 227, reference compound]	32 µg/mL (≈ 36.9 µM)	4 µg/mL (≈ 4.61 µM)	4 µg/mL (≈ 4.61 µM)	–	–	–
CCC1OC(=O)C(C)(F)C(=O)C(C)C(OC2OC(C)CC(N(C)C)C2O)C2(C)CC(C)C(=NC(C)=O)C(C)C(OCC(=NOCc3ccn(-c4cccc(N)n4)n3)CO2)C1(C)O (stereo not shown) [Example 59]	–	–	–	2 µg/mL (≈ 2.29 µM)	2 µg/mL (≈ 2.29 µM)	–
CCC1OC(=O)C(C)C(=O)C(C)C(OC2OC(C)CC(N(C)C)C2O)C2(C)CC(C)C(=O)C(C)C(OCC(=NOCc3ccc(-c4csc(N)n4)cn3)CO2)C1(C)O (stereo not shown) [Example 41]	–	–	–	2 µg/mL (≈ 2.4 µM)	1 µg/mL (≈ 1.2 µM)	–
